From patent publication US10131652B2, “Pyrimidinyloxy benzene derivatives as herbicides” (E. I. DU PONT DE NEMOURS AND COMPANY, priority 2014, dated 2018)

Columns and labels:
Format in all cases: in vivo
Conditions in all cases: scale 0 to 100
[1] = test system: fall panicum (Panicum dichotomiflorum); assay: Test F pre-/postemergence plant response
Text: (§1) Seeds of plant species selected from corn (Zea mays), soybean (Glycine max), velvetleaf (Abutilon theophrasti), lambsquarters (Chenopodium album), wild poinsettia (Euphorbia heterophylla), palmer pigweed (Amaranthus palmeri), waterhemp (common waterhemp, Amaranthus rudis), surinam grass (Brachiaria decumbens), large (Lg) crabgrass (Digitaria sanguinalis), Brazilian crabgrass (Digitaria horizontalis), fall panicum (Panicum dichotomiflorum), giant foxtail (Setaria faberii), green foxtail (Setaria viridis), goosegrass (Eleusine indica), johnsongrass (Sorghum halepense), ragweed (common ragweed, Ambrosia elatior), barnyardgrass (Echinochloa crus-galli), sandbur (southern sandbur, Cenchrus echinatus), arrowleaf sida (Sida rhombifolia), Italian ryegrass (Lolium multiflorum), dayflower (Virginia (VA) dayflower, Commelina virginica), field bindweed (Convolvulus arvensis), cocklebur (common cocklebur, Xanthium strumarium), momingglory (Ipomoea coccinea), nightshade (eastern black nightshade, Solanum ptycanthum), kochia (Kochia scoparia), yellow nutsedge (Cyperus esculentus), and hairy beggarticks (Bidens pilosa), were planted into a silt loam soil and treated preemergence with test chemicals formulated in a non-phytotoxic solvent mixture which included a surfactant.
(§2) At the same time, plants from these crop and weed species and also waterhemp_RES1, (ALS & Triazine resistant common waterhemp, Amaranthus rudis), and waterhemp_RES2, (ALS & HPPD resistant common waterhemp, Amaranthus rudis) were treated with postemergence applications of test chemicals formulated in the same manner. Plants ranged in height from 2 to 18 cm for postemergence treatments (1- to 4-leaf stage).
(§3) Treated plants and controls were maintained in a greenhouse for 14 to 21 days, after which time all species were compared to controls and visually evaluated. Plant response ratings, summarized in Table F, are based on a scale of 0 to 100 where 0 is no effect and 100 is complete control. A dash (-) response means no test result.

[2] = test system: field bindweed (Convolvulus arvensis); assay: Test F pre-/postemergence plant response
Text: as §1, §2, §3

[3] = test system: giant foxtail (Setaria faberii); assay: Test F pre-/postemergence plant response
Text: as §1, §2, §3

kochia (Kochia scoparia) = assay: Test F pre-/postemergence plant response
Text: as §1, §2, §3

[4] = test system: large (Lg) crabgrass (Digitaria sanguinalis); assay: Test F pre-/postemergence plant response
Text: as §1, §2, §3

[5] = test system: morningglory (Ipomoea coccinea); assay: Test F pre-/postemergence plant response
Text: as §1, §2, §3

[6] = test system: nightshade (eastern black nightshade, Solanum ptycanthum); assay: Test F pre-/postemergence plant response
Text: as §1, §2, §3

[7] = test system: waterhemp_RES1 (ALS & Triazine resistant common waterhemp, Amaranthus rudis); assay: Test F postemergence plant response
Protocol: as §2, §3

[8] = test system: waterhemp_RES2 (ALS & HPPD resistant common waterhemp, Amaranthus rudis); assay: Test F postemergence plant response
Protocol: as §2, §3

## Cc1cc(-c2ccccc2Oc2ncc(Cl)cn2)on1 [Compound 58]
[1]; 8 g ai/ha Postemergence
  Plant response rating, Panicum, Fall: 15
[1]; 8 g ai/ha Preemergence
  Plant response rating, Panicum, Fall: 0
[1]; 16 g ai/ha Postemergence
  Plant response rating, Panicum, Fall: 0
[1]; 16 g ai/ha Preemergence
  Plant response rating, Panicum, Fall: 35
[1]; 31 g ai/ha Postemergence
  Plant response rating, Panicum, Fall: 0
[1]; 31 g ai/ha Preemergence
  Plant response rating, Panicum, Fall: 65
[1]; 62 g ai/ha Postemergence
  Plant response rating, Panicum, Fall: 10
[1]; 125 g ai/ha Postemergence
  Plant response rating, Panicum, Fall: 15
[1]; 125 g ai/ha Preemergence
  Plant response rating, Panicum, Fall: 100
[1]; Preemergence
  Plant response rating, Panicum, Fall: 90
[2]; 8 g ai/ha Postemergence
  Plant response rating, Field Bindweed: 10
[2]; 8 g ai/ha Preemergence
  Plant response rating, Field Bindweed: 0
[2]; 16 g ai/ha Postemergence
  Plant response rating, Field Bindweed: 10
[2]; 16 g ai/ha Preemergence
  Plant response rating, Field Bindweed: 0
[2]; 31 g ai/ha Postemergence
  Plant response rating, Field Bindweed: 20
[2]; 31 g ai/ha Preemergence
  Plant response rating, Field Bindweed: 0
[2]; 62 g ai/ha Postemergence
  Plant response rating, Field Bindweed: 30
[2]; 62 g ai/ha Preemergence
  Plant response rating, Field Bindweed: 0
[2]; 125 g ai/ha Postemergence
  Plant response rating, Field Bindweed: 50
[2]; 125 g ai/ha Preemergence
  Plant response rating, Field Bindweed: 0
[3]; 8 g ai/ha Preemergence
  Plant response rating, Foxtail, Giant: 0
[3]; 16 g ai/ha Preemergence
  Plant response rating, Foxtail, Giant: 0
[3]; 31 g ai/ha Preemergence
  Plant response rating, Foxtail, Giant: 0
[3]; 62 g ai/ha Preemergence
  Plant response rating, Foxtail, Giant: 0
[3]; 125 g ai/ha Preemergence
  Plant response rating, Foxtail, Giant: 40
Kochia (Kochia scoparia); 8 g ai/ha Postemergence
  Plant response rating, Kochia: 30
Kochia (Kochia scoparia); 8 g ai/ha Preemergence
  Plant response rating, Kochia: 0
Kochia (Kochia scoparia); 16 g ai/ha Postemergence
  Plant response rating, Kochia: 40
Kochia (Kochia scoparia); 16 g ai/ha Preemergence
  Plant response rating, Kochia: 0
Kochia (Kochia scoparia); 31 g ai/ha Postemergence
  Plant response rating, Kochia: 30
Kochia (Kochia scoparia); 31 g ai/ha Preemergence
  Plant response rating, Kochia: 0
Kochia (Kochia scoparia); 62 g ai/ha Postemergence
  Plant response rating, Kochia: 60
Kochia (Kochia scoparia); 125 g ai/ha Postemergence
  Plant response rating, Kochia: 75
Kochia (Kochia scoparia); 125 g ai/ha Preemergence
  Plant response rating, Kochia: 30
Kochia (Kochia scoparia); Preemergence
  Plant response rating, Kochia: 0
[4]; 8 g ai/ha Preemergence
  Plant response rating, Crabgrass, Large: 0
[4]; 16 g ai/ha Preemergence
  Plant response rating, Crabgrass, Large: 20
[4]; 31 g ai/ha Preemergence
  Plant response rating, Crabgrass, Large: 50
[4]; 62 g ai/ha Preemergence
  Plant response rating, Crabgrass, Large: 65
[4]; 125 g ai/ha Preemergence
  Plant response rating, Crabgrass, Large: 80
[5]; 8 g ai/ha Preemergence
  Plant response rating, Morningglory: 0
[5]; 16 g ai/ha Preemergence
  Plant response rating, Morningglory: 0
[5]; 31 g ai/ha Preemergence
  Plant response rating, Morningglory: 10
[5]; 125 g ai/ha Preemergence
  Plant response rating, Morningglory: 10
[5]; Preemergence
  Plant response rating, Morningglory: 10
[6]; 8 g ai/ha Preemergence
  Plant response rating, Nightshade: 0
[6]; 16 g ai/ha Preemergence
  Plant response rating, Nightshade: 65
[6]; 31 g ai/ha Preemergence
  Plant response rating, Nightshade: 80
[6]; 125 g ai/ha Preemergence
  Plant response rating, Nightshade: 98
[6]; Preemergence
  Plant response rating, Nightshade: 90
[7]; 8 g ai/ha Postemergence
  Plant response rating, Waterhemp_RES1: 10
[7]; 16 g ai/ha Postemergence
  Plant response rating, Waterhemp_RES1: 20
[7]; 31 g ai/ha Postemergence
  Plant response rating, Waterhemp_RES1: 65
[7]; 62 g ai/ha Postemergence
  Plant response rating, Waterhemp_RES1: 70
[7]; 125 g ai/ha Postemergence
  Plant response rating, Waterhemp_RES1: 75
[8]; 8 g ai/ha Postemergence
  Plant response rating, Waterhemp_RES2: 65
[8]; 16 g ai/ha Postemergence
  Plant response rating, Waterhemp_RES2: 60
[8]; 31 g ai/ha Postemergence
  Plant response rating, Waterhemp_RES2: 70
[8]; 62 g ai/ha Postemergence
  Plant response rating, Waterhemp_RES2: 75
[8]; 125 g ai/ha Postemergence
  Plant response rating, Waterhemp_RES2: 80

## Fc1ccc(Oc2ncc(Cl)cn2)c(-c2cc(C(F)F)on2)c1Cl [Compound 96]
[1]; 16 g ai/ha Postemergence
  Plant response rating, Panicum, Fall: 0
[1]; 31 g ai/ha Postemergence
  Plant response rating, Panicum, Fall: 15
[1]; 31 g ai/ha Preemergence
  Plant response rating, Panicum, Fall: 40
[1]; 62 g ai/ha Postemergence
  Plant response rating, Panicum, Fall: 10
[1]; 125 g ai/ha Postemergence
  Plant response rating, Panicum, Fall: 25
[1]; 125 g ai/ha Preemergence
  Plant response rating, Panicum, Fall: 70
[1]; Preemergence
  Plant response rating, Panicum, Fall: 50
[2]; 16 g ai/ha Postemergence
  Plant response rating, Field Bindweed: 5
[2]; 16 g ai/ha Preemergence
  Plant response rating, Field Bindweed: 0
[2]; 31 g ai/ha Postemergence
  Plant response rating, Field Bindweed: 10
[2]; 31 g ai/ha Preemergence
  Plant response rating, Field Bindweed: 0
[2]; 62 g ai/ha Postemergence
  Plant response rating, Field Bindweed: 20
[2]; 62 g ai/ha Preemergence
  Plant response rating, Field Bindweed: 60
[2]; 125 g ai/ha Postemergence
  Plant response rating, Field Bindweed: 50
[2]; 125 g ai/ha Preemergence
  Plant response rating, Field Bindweed: 40
[3]; 16 g ai/ha Preemergence
  Plant response rating, Foxtail, Giant: 0
[3]; 31 g ai/ha Preemergence
  Plant response rating, Foxtail, Giant: 0
[3]; 62 g ai/ha Preemergence
  Plant response rating, Foxtail, Giant: 0
[3]; 125 g ai/ha Preemergence
  Plant response rating, Foxtail, Giant: 20
Kochia (Kochia scoparia); 16 g ai/ha Postemergence
  Plant response rating, Kochia: 65
Kochia (Kochia scoparia); 16 g ai/ha Preemergence
  Plant response rating, Kochia: 0
Kochia (Kochia scoparia); 31 g ai/ha Postemergence
  Plant response rating, Kochia: 75
Kochia (Kochia scoparia); 31 g ai/ha Preemergence
  Plant response rating, Kochia: 0
Kochia (Kochia scoparia); 62 g ai/ha Postemergence
  Plant response rating, Kochia: 75
Kochia (Kochia scoparia); 125 g ai/ha Postemergence
  Plant response rating, Kochia: 95
Kochia (Kochia scoparia); 125 g ai/ha Preemergence
  Plant response rating, Kochia: 90
Kochia (Kochia scoparia); Preemergence
  Plant response rating, Kochia: 65
[4]; 16 g ai/ha Preemergence
  Plant response rating, Crabgrass, Large: 0
[4]; 31 g ai/ha Preemergence
  Plant response rating, Crabgrass, Large: 30
[4]; 62 g ai/ha Preemergence
  Plant response rating, Crabgrass, Large: 65
[4]; 125 g ai/ha Preemergence
  Plant response rating, Crabgrass, Large: 95
[5]; 16 g ai/ha Preemergence
  Plant response rating, Morningglory: 35
[5]; 31 g ai/ha Preemergence
  Plant response rating, Morningglory: 35
[5]; 125 g ai/ha Preemergence
  Plant response rating, Morningglory: 25
[5]; Preemergence
  Plant response rating, Morningglory: 35
[6]; 16 g ai/ha Preemergence
  Plant response rating, Nightshade: 0
[6]; 31 g ai/ha Preemergence
  Plant response rating, Nightshade: 0
[6]; 125 g ai/ha Preemergence
  Plant response rating, Nightshade: 90
[6]; Preemergence
  Plant response rating, Nightshade: 65
[7]; 16 g ai/ha Postemergence
  Plant response rating, Waterhemp_RES1: 85
[7]; 31 g ai/ha Postemergence
  Plant response rating, Waterhemp_RES1: 90
[7]; 62 g ai/ha Postemergence
  Plant response rating, Waterhemp_RES1: 95
[7]; 125 g ai/ha Postemergence
  Plant response rating, Waterhemp_RES1: 95
[8]; 16 g ai/ha Postemergence
  Plant response rating, Waterhemp_RES2: 85
[8]; 31 g ai/ha Postemergence
  Plant response rating, Waterhemp_RES2: 90
[8]; 62 g ai/ha Postemergence
  Plant response rating, Waterhemp_RES2: 90
[8]; 125 g ai/ha Postemergence
  Plant response rating, Waterhemp_RES2: 95
